From ChEMBL document CHEMBL4616724, “Topoisomerase Inhibitors Addressing Fluoroquinolone Resistance in Gram-Negative Bacteria” (J Med Chem, 2020)
In brackets after ≈: the same amount, converted by molar mass.

Legend:
Klebsiella pneumoniae = assay: Antibacterial activity against Klebsiella pneumoniae clinical isolates by CLSI-based broth microdilution assay; format: functional
Pseudomonas aeruginosa = assay: Antibacterial activity against Pseudomonas aeruginosa K1542/K767 harboring MexB/MexXY deletion mutant by CLSI-based broth microdilution assay; format: functional
Enterobacter = assay: Antibacterial activity against Enterobacter clinical isolates by CLSI-based broth microdilution assay; format: functional
[1] = Protein binding in Sprague-Dawley rat plasma at 10 uM incubated for 4 hrs under shaking condition by LC-MS/MS analysis; format: ADME, cell-free; settings: read-out: PPB (converted)
[2] = n-Octanol-PBS buffer partition coefficient, log D of the compound at pH 7.4 after overnight incubation by LC/UV/qTOF analysis; format: physicochemical
[3] = Protein binding in pooled human plasma at 10 uM incubated for 4 hrs under shaking condition by LC-MS/MS analysis; format: ADME, cell-free; settings: read-out: PPB (converted)
[4] = Oral bioavailability in mouse at 5 mg/kg measured up to 24 hrs by LC-MS/MS analysis; format: ADME, organism-based; settings: in vivo
Serratia marcescens = assay: Antibacterial activity against Serratia marcescens clinical isolates by CLSI-based broth microdilution assay; format: functional
[5] = Intrinsic clearance in rat liver microsomes at 1 uM in presence of NADPH and measured up to 30 mins by LC-MS/MS analysis; format: ADME, Microsome; settings: read-out: CLH
[6] = Intrinsic clearance in human liver microsomes at 1 uM in presence of NADPH and measured up to 30 mins by LC-MS/MS analysis; format: ADME, Microsome; settings: read-out: CLH
[7] = Clearance in rat at 5 mg/kg, iv or 10 mg/kg, po measured up to 24 hrs by LC-MS/MS analysis; format: ADME, organism-based; settings: in vivo
Citrobacter = assay: Antibacterial activity against Citrobacter clinical isolates by CLSI-based broth microdilution assay; format: functional
[8] = Dose normalized AUC in rat at 10 mg/kg, po measured up to 24 hrs by LC-MS/MS analysis; format: ADME, organism-based; settings: in vivo

`Cc1c(N2CC3CC3(N)C2)c(F)cc2c(CN)c(F)c(=O)n(C3CC3)c12` (stereo unspecified) showed an MIC (Klebsiella pneumoniae) of 0.25 to 32 µg/mL (≈ 0.694 to 88.8 µM), an MIC50 (Klebsiella pneumoniae) of 4 µg/mL (≈ 11.1 µM) and an MIC90 (Klebsiella pneumoniae) of 16 µg/mL (≈ 44.4 µM). For the same molecule, the MIC (Pseudomonas aeruginosa) was 0.25 µg/mL (≈ 0.694 µM), the MIC (Enterobacter) was 0.06 to 32 µg/mL (≈ 0.166 to 88.8 µM) and the MIC50 (Enterobacter) was 1 µg/mL (≈ 2.77 µM). The MIC90 (Enterobacter) was 8 µg/mL (≈ 22.2 µM), the fraction unbound at 4 h, 10 µM [1] was 0.42 and the logD [2] was 1.1. For the same molecule, the fraction unbound at 4 h, 10 µM [3] was 0.65, the bioavailability [4] was 36% and the MIC (Serratia marcescens) was 0.06 to 32 µg/mL (≈ 0.166 to 88.8 µM). For the same molecule, the MIC50 (Serratia marcescens) was 1 µg/mL (≈ 2.77 µM), the MIC90 (Serratia marcescens) was 8 µg/mL (≈ 22.2 µM) and the microsomal CLint at 1 µM [5] was 117 µL/min/mg. The microsomal CLint at 1 µM [6] was 18 µL/min/mg, the clearance [7] was 71 mL/min/kg and the MIC (Citrobacter) was 0.06 to 32 µg/mL (≈ 0.166 to 88.8 µM). For the same molecule, the MIC50 (Citrobacter) was 1 µg/mL (≈ 2.77 µM), the MIC90 (Citrobacter) was 8 µg/mL (≈ 22.2 µM) and the AUC/dose [8] was 0.1 µM·h/mg/kg.
